Earlier results as cited in patent US20050196379A1, “Combination therapies with L-FMAU for the treatment of hepatitis B virus infection” (priority 2002, published 2005).

Legend:
[1] = tested on: woodchuck hepatitis B virus (WHV); conditions: for drop of viral titers in serum: single drug, previous studies, same time frame (two weeks)
hepatitis B virus = conditions: in vivo

Molecule | average decrease in CCC DNA ([1]; L-FMAU alone, Peek et al.) [fold] | drop of viral titers in serum [1] | number of infected hepatocytes ([1]; woodchuck model) | effect on viral replication and viral clearance ([1]; woodchuck model of HBV) | activity against hepatitis B virus in duck models (hepatitis B virus)
Cc1cn([C@H]2O[C@@H](CO)[C@H](O)[C@H]2F)c(=O)[nH]c1=O [L-FMAU, 1-(2′-deoxy-2′-fluoro-β-L-arabinofuranosyl)-thymine] | 10 | ~1,000 fold | decrease rapidly the number of infected hepatocytes | – | –
β-2-hydroxymethyl-5-(5-fluorocytosin-1-yl)-1,3-oxathiolane [β-L-FTC] | – | about 56 fold | – | inhibit viral replication but not induce viral clearance | strong activity
